Results: PubChem BioAssay AID256 (DTP/NCI, 2004)
Values joined by “and” are separate entries in the source; they are usually repeats but may differ in a detail not shown here. Equal values may be shown once. Inconclusive results and toxic doses are left out. Non-standard residues stand in square brackets, D forms with d. Residues, ends and D or L forms follow the SMILES beside them. *: point of attachment. Cbz = O=C(OCc1ccccc1)*; Dha = C=C(N)C(=O)O

System: CD2F1 mice, L1210 leukemia ip, survival T/C
Assay: NCI In Vivo Anticancer Drug Screen. Data for tumor model L1210 Leukemia (intraperitoneal) in CD2F1 (CDF1) mice
Details: higher = longer survival
Method in brief: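 Transplantable tumor in mice; compound-treated vs vehicle-treated groups. Read-out = treated/control ratio of the measured endpoint.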

[1] = endpoint: mean survival time, dose: 100.0 mg/kg/injection, schedule: Q01DX009 (ip), vehicle: saline with Tween-80
[2] = endpoint: mean survival time, dose: 100.0 mg/kg/injection, schedule: Q04DX003 (ip), vehicle: saline with Tween-80
[3] = endpoint: mean survival time, dose: 200.0 mg/kg/injection, schedule: Q01DX009 (ip), vehicle: saline with Tween-80
[4] = endpoint: mean survival time, dose: 200.0 mg/kg/injection, schedule: Q04DX003 (ip), vehicle: saline with Tween-80
[5] = endpoint: mean survival time, dose: 400.0 mg/kg/injection, schedule: Q01DX009 (ip), vehicle: saline with Tween-80
[6] = endpoint: mean survival time, dose: 400.0 mg/kg/injection, schedule: Q04DX003 (ip), vehicle: saline with Tween-80
[7] = endpoint: mean survival time, dose: 100.0 mg/kg/injection, schedule: Q01DX001 (ip), vehicle: saline
[8] = endpoint: mean survival time, dose: 200.0 mg/kg/injection, schedule: Q01DX001 (ip), vehicle: saline
[9] = endpoint: mean survival time, dose: 400.0 mg/kg/injection, schedule: Q01DX001 (ip), vehicle: saline
[10] = endpoint: mean survival time, dose: 50.0 mg/kg/injection, schedule: Q04DX002 (ip), vehicle: saline with Tween-80
[11] = endpoint: mean survival time, dose: 100.0 mg/kg/injection, schedule: Q04DX002 (ip), vehicle: saline with Tween-80
[12] = endpoint: mean survival time, dose: 100.0 mg/kg/injection, schedule: Q01DX009 (ip), vehicle: saline
[13] = endpoint: mean survival time, dose: 200.0 mg/kg/injection, schedule: Q01DX009 (ip), vehicle: saline
[14] = endpoint: mean survival time, dose: 400.0 mg/kg/injection, schedule: Q01DX009 (ip), vehicle: saline

C/C=C(/C(=O)OC)c1ccc([N+](=O)[O-])cc1
T/C [1]: 94 % of control | T/C [2]: 92 % of control | T/C [3]: 95 % of control | T/C [4]: 94 % of control | T/C [5]: 94 % of control | T/C [6]: 92 % of control

Cc1cc(O)c2c(c1O)C(=O)c1c(O)ccc(O)c1C2=O
T/C [7]: 95 % of control | T/C [8]: 95 % of control | T/C [9]: 97 % of control

CC(=O)Nc1c(Br)cc2c(c1Br)Cc1cc(N(CCO)CCO)ccc1-2
T/C (endpoint: mean survival time, dose: 50.0 mg/kg/injection, schedule: Q01DX001 (ip), vehicle: carboxymethylcellulose (CMC)): 102 % of control | T/C (endpoint: mean survival time, dose: 100.0 mg/kg/injection, schedule: Q01DX001 (ip), vehicle: carboxymethylcellulose (CMC)): 102 % of control | T/C (endpoint: mean survival time, dose: 200.0 mg/kg/injection, schedule: Q01DX001 (ip), vehicle: carboxymethylcellulose (CMC)): 104 % of control | T/C (endpoint: mean survival time, dose: 400.0 mg/kg/injection, schedule: Q01DX001 (ip), vehicle: carboxymethylcellulose (CMC)): 98 % of control

CC(=O)Nc1ccc(/C=N/NC(=O)CNC(=O)Nc2cccc(C(F)(F)F)c2)cc1
T/C (endpoint: mean survival time, dose: 50.0 mg/kg/injection, schedule: Q01DX009 (ip), vehicle: saline with Tween-80): 88 % of control | T/C [1]: 88 % of control | T/C [3]: 92 % of control

O=S(=O)(O)C1CCC(O)C2[N-]CCCC21.O=S(=O)(O)C1CCC(O)C2[N-]CCCC21.[Zn+2] (stereo unspecified)
T/C [1]: 95 % of control | T/C [2]: 96 % of control | T/C [4]: 93 % of control | T/C [5]: 86 % of control | T/C [6]: 96 % of control

NCCC(O)C(=O)NC1CC(N)C(OC2OC(CN)C(O)C(O)C2O)C(O)C1OC1OC(CO)C(O)C(N)C1O (stereo unspecified)
T/C (endpoint: mean survival time, dose: 10.0 mg/kg/injection, schedule: Q04DX003 (ip), vehicle: saline): 95 % of control | T/C (endpoint: mean survival time, dose: 20.0 mg/kg/injection, schedule: Q04DX003 (ip), vehicle: saline): 90 % of control | T/C (endpoint: mean survival time, dose: 40.0 mg/kg/injection, schedule: Q04DX003 (ip), vehicle: saline): 93 % of control

C=C(NC(=O)CNC(=O)OCc1ccccc1)C(=O)O (Cbz-Gly-[Dha]-OH)
T/C [10]: 102 % of control | T/C [11]: 98 % of control | T/C (endpoint: mean survival time, dose: 200.0 mg/kg/injection, schedule: Q04DX002 (ip), vehicle: saline with Tween-80): 96 % of control | T/C (endpoint: mean survival time, dose: 400.0 mg/kg/injection, schedule: Q04DX002 (ip), vehicle: saline with Tween-80): 94 % of control

Nc1nc(N)c2c(n1)=NC(c1cccc3ccccc13)N=2 (stereo unspecified)
T/C (endpoint: mean survival time, dose: 6.25 mg/kg/injection, schedule: Q01DX005 (ip), vehicle: water): 92 % of control | T/C (endpoint: mean survival time, dose: 12.5 mg/kg/injection, schedule: Q01DX005 (ip), vehicle: water): 89 % of control | T/C (endpoint: mean survival time, dose: 25.0 mg/kg/injection, schedule: Q01DX005 (ip), vehicle: water): 91 % of control | T/C (endpoint: mean survival time, dose: 50.0 mg/kg/injection, schedule: Q01DX005 (ip), vehicle: water): 92 % of control | T/C (endpoint: mean survival time, dose: 100.0 mg/kg/injection, schedule: Q01DX005 (ip), vehicle: water): 89 % of control | T/C (endpoint: mean survival time, dose: 200.0 mg/kg/injection, schedule: Q01DX005 (ip), vehicle: other): 96 % of control | T/C (endpoint: mean survival time, dose: 400.0 mg/kg/injection, schedule: Q01DX005 (ip), vehicle: other): 96 % of control

COc1ccccc1N=Nc1c(O)n(-c2ccccc2Cl)c(=S)n(-c2ccccc2OC)c1=O
T/C (endpoint: mean survival time, dose: 25.0 mg/kg/injection, schedule: Q04DX002 (ip), vehicle: saline with Tween-80): 105 % of control | T/C [10]: 90 % of control | T/C [11]: 94 % of control

OCCN1CCNC1=S
T/C [12]: 97 % of control | T/C (endpoint: mean survival time, dose: 100.0 mg/kg/injection, schedule: Q04DX003 (ip), vehicle: saline): 97 % of control | T/C [13]: 97 % of control | T/C (endpoint: mean survival time, dose: 200.0 mg/kg/injection, schedule: Q04DX003 (ip), vehicle: saline): 92 % of control | T/C [14]: 102 % of control | T/C (endpoint: mean survival time, dose: 400.0 mg/kg/injection, schedule: Q04DX003 (ip), vehicle: saline): 98 % of control

c1ccc2cc3nc4cc5ccccc5cc4nc3cc2c1
T/C [2]: 95 % of control | T/C [4]: 103 % of control | T/C [6]: 91 % of control

CNCCN1CCC(Cc2ccccc2)CC1
T/C (endpoint: mean survival time, dose: 50.0 mg/kg/injection, schedule: Q01DX009 (ip), vehicle: saline): 102 % of control | T/C [12]: 100 % of control | T/C [13]: 106 % of control

COc1ccc(C2(C)N=NC(=C(c3ccccc3)c3ccccc3)O2)cc1 (stereo unspecified)
T/C [1]: 97 % of control | T/C [2]: 91 % of control | T/C [3]: 86 % of control | T/C [4]: 91 % of control | T/C [5]: 86 % of control | T/C [6]: 93 % of control

CCN(c1ccccc1)S(=O)(=O)CS(=O)(=O)N(CC)c1ccccc1
T/C (endpoint: mean survival time, dose: 100.0 mg/kg/injection, schedule: Q01DX001 (ip), vehicle: Klucel (hydroxypropylcellulose) (HPC)): 104 % of control | T/C (endpoint: mean survival time, dose: 200.0 mg/kg/injection, schedule: Q01DX001 (ip), vehicle: Klucel (hydroxypropylcellulose) (HPC)): 96 % of control | T/C (endpoint: mean survival time, dose: 400.0 mg/kg/injection, schedule: Q01DX001 (ip), vehicle: Klucel (hydroxypropylcellulose) (HPC)): 93 % of control

COc1ccc(/C=C2\N=C(c3ccccc3)OC2=O)cc1OC
T/C [12]: 103 % of control | T/C [13]: 98 % of control | T/C [14]: 98 % of control

C=Cc1ccc(OC2OC(COC(C)=O)C(OC3OC(COC(C)=O)C(OC(C)=O)C(OC(C)=O)C3OC(C)=O)C(OC(C)=O)C2OC(C)=O)cc1 (stereo unspecified)
T/C (endpoint: mean survival time, dose: 75.0 mg/kg/injection, schedule: Q01DX001 (ip), vehicle: other): 92 % of control | T/C (endpoint: mean survival time, dose: 150.0 mg/kg/injection, schedule: Q01DX001 (ip), vehicle: other): 95 % of control | T/C (endpoint: mean survival time, dose: 300.0 mg/kg/injection, schedule: Q01DX001 (ip), vehicle: other): 92 % of control

O=C(Nc1ccc(Oc2ccccc2)cc1)c1ccc(C(=O)Nc2ccc(Oc3ccccc3)cc2)cc1
T/C [7]: 92 % of control | T/C [8]: 92 % of control | T/C [9]: 95 % of control

NNC(=O)c1nc2ccccc2s1
T/C (endpoint: mean survival time, dose: 37.5 mg/kg/injection, schedule: Q04DX003 (ip), vehicle: saline sonified): 97 % of control | T/C (endpoint: mean survival time, dose: 75.0 mg/kg/injection, schedule: Q04DX003 (ip), vehicle: saline sonified): 92 % of control | T/C (endpoint: mean survival time, dose: 150.0 mg/kg/injection, schedule: Q04DX003 (ip), vehicle: saline sonified): 94 % of control

CC1(O)C=CC(=O)C=C1
T/C (endpoint: median survival time, dose: 6.25 mg/kg/injection, schedule: Q01DX009 (ip), vehicle: water): 91 % of control | T/C (endpoint: median survival time, dose: 12.5 mg/kg/injection, schedule: Q01DX009 (ip), vehicle: water): 103 % of control | T/C (endpoint: median survival time, dose: 25.0 mg/kg/injection, schedule: Q01DX009 (ip), vehicle: water): 122 % of control | T/C (endpoint: median survival time, dose: 50.0 mg/kg/injection, schedule: Q01DX009 (ip), vehicle: water): 91 % of control

O=C1CCC(=O)N1CC(O)COc1ccc(Cl)cc1 (stereo unspecified)
T/C [2]: 95 % of control | T/C [4]: 98 % of control | T/C [6]: 95 % of control

CCNCC(=O)O[C@]1(CC)C(=O)OCc2c1cc1n(c2=O)Cc2cc3ccccc3nc2-1
T/C (endpoint: median survival time, dose: 7.5 mg/kg/injection, schedule: Q04DX002 (ip), vehicle: saline): 122 % of control and 110 % of control | T/C (endpoint: median survival time, dose: 7.5 mg/kg/injection, schedule: Q04HX004 (iv), vehicle: dextrose): 164 % of control | T/C (endpoint: median survival time, dose: 7.5 mg/kg/injection, schedule: Q04HX004 (iv), vehicle: other): 179 % of control | T/C (endpoint: median survival time, dose: 15.0 mg/kg/injection, schedule: Q04DX002 (ip), vehicle: saline): 117 % of control | T/C (endpoint: median survival time, dose: 15.0 mg/kg/injection, schedule: Q04HX004 (iv), vehicle: dextrose): 198 % of control | T/C (endpoint: median survival time, dose: 15.0 mg/kg/injection, schedule: Q04HX004 (iv), vehicle: other): 195 % of control | T/C (endpoint: median survival time, dose: 30.0 mg/kg/injection, schedule: Q04DX002 (ip), vehicle: saline): 170 % of control and 172 % of control | T/C (endpoint: median survival time, dose: 30.0 mg/kg/injection, schedule: Q04HX004 (iv), vehicle: dextrose): 208 % of control | T/C (endpoint: median survival time, dose: 30.0 mg/kg/injection, schedule: Q04HX004 (iv), vehicle: other): 223 % of control | T/C (endpoint: median survival time, dose: 40.0 mg/kg/injection, schedule: Q04HX004 (iv), vehicle: other): 235 % of control

N#CCCN(CC(O)c1cc2ccccc2c2ccccc12)C1CCCCC1 (stereo unspecified)
T/C (endpoint: mean survival time, dose: 100.0 mg/kg/injection, schedule: Q01DX001 (ip), vehicle: saline with Tween-80): 91 % of control | T/C [1]: 106 % of control | T/C (endpoint: mean survival time, dose: 200.0 mg/kg/injection, schedule: Q01DX001 (ip), vehicle: saline with Tween-80): 90 % of control | T/C [3]: 97 % of control | T/C (endpoint: mean survival time, dose: 400.0 mg/kg/injection, schedule: Q01DX001 (ip), vehicle: saline with Tween-80): 92 % of control | T/C [5]: 97 % of control

CCOC(=O)N1CCN(c2ccc(Cl)cc2)CC1
T/C (endpoint: mean survival time, dose: 100.0 mg/kg/injection, schedule: Q04DX003 (ip), vehicle: Klucel (hydroxypropylcellulose) (HPC)): 93 % of control | T/C (endpoint: mean survival time, dose: 200.0 mg/kg/injection, schedule: Q04DX003 (ip), vehicle: Klucel (hydroxypropylcellulose) (HPC)): 91 % of control
